According to ChEMBL document CHEMBL1201862, “PubChem BioAssay data set” (2004):
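In this assay, cells in 96-well plates receive the compound at five concentrations for 48 hours. Endpoints are linearly interpolated between the surrounding concentrations. GI50 = concentration required for 50% inhibition of growth.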 Calls of active or inactive are those of the source. No stated cut-off is given here; in the data, active = GI50 up to about 1.1 µM and inactive = higher.

Legend:
Assay in all cases: NCI tumour cell line growth inhibition, 48 h
OVCAR-8 = tested on: OVCAR-8
SNB-19 = tested on: SNB-19
SF-295 = tested on: SF-295
UO-31 = tested on: UO-31
IGROV-1 = tested on: IGROV-1
SK-MEL-28 = tested on: SK-MEL-28
HCC 2998 = tested on: HCC 2998
Malme-3M = tested on: Malme-3M
HCT-15 = tested on: HCT-15
COLO 205 = tested on: COLO 205
A549 = tested on: A549
786-0 = tested on: 786-0
RXF 393 = tested on: RXF 393
U-251 = tested on: U-251
SNB-75 = tested on: SNB-75
SK-MEL-2 = tested on: SK-MEL-2
LOX IMVI = tested on: LOX IMVI
OVCAR-5 = tested on: OVCAR-5

Row | Compound | GI50 (OVCAR-8) | GI50 (SNB-19) | GI50 (SF-295) | GI50 (UO-31) | GI50 (IGROV-1) | GI50 (SK-MEL-28) | GI50 (HCC 2998) | GI50 (Malme-3M) | GI50 (HCT-15) [µM] | GI50 (COLO 205) | GI50 (A549) | GI50 (786-0) | GI50 (RXF 393) | GI50 (U-251) | GI50 (SNB-75) | GI50 (SK-MEL-2) | GI50 (LOX IMVI) | GI50 (OVCAR-5)
1 | CCOC(=O)C(C)(C)Oc1ccc(/C=C/C(=O)c2ccc(Cl)cc2)cc1 | 21.6 µM (inactive) | 19.2 µM (inactive) | 21 µM (inactive) | 35.2 µM (inactive) | 17.3 µM (inactive) | 19.4 µM (inactive) | > 10 µM (inactive) | 18.4 µM (inactive) | 17.2 | 24 µM (inactive) | 33.5 µM (inactive) | 17.2 µM (inactive) | 15.3 µM (inactive) | 17.7 µM (inactive) | 15.2 µM (inactive) | 20.7 µM (inactive) | 16.6 µM (inactive) | 
2 | CSc1cccc(-n2c3nc(=O)n(C)c(=O)c-3nc3ccccc32)c1 | 8.83 µM (inactive) | 12.9 µM (inactive) | 10.8 µM (inactive) | 17.4 µM (inactive) | 13.6 µM (inactive) | 17.4 µM (inactive) | 4.03 µM (inactive) | 3.04 µM (inactive) | 5.02 | 2.94 µM (inactive) | 2.65 µM (inactive) | 4.92 µM (inactive) |  | 7.98 µM (inactive) | 14.5 µM (inactive) | 13 µM (inactive) |  | 18 µM (inactive)
3 | Cc1ccc(S(=O)(=O)N/N=C(\c2nc3ccc(Cl)cc3[nH]c2=O)C(O)c2ccco2)cc1 (stereo unspecified) |  | > 100 µM (inactive) | > 100 µM (inactive) |  | > 100 µM (inactive) | > 100 µM (inactive) | > 100 µM (inactive) | > 100 µM (inactive) | > 100 | > 100 µM (inactive) | > 100 µM (inactive) | > 100 µM (inactive) | > 100 µM (inactive) |  | > 100 µM (inactive) | > 100 µM (inactive) | > 100 µM (inactive) | > 100 µM (inactive)
4 | CC#CCC1CCC(OCC)=CC1=O (stereo unspecified) | > 100 µM (inactive) | > 100 µM (inactive) | > 100 µM (inactive) | > 100 µM (inactive) | > 100 µM (inactive) | > 100 µM (inactive) |  |  | > 100 | > 100 µM (inactive) | > 100 µM (inactive) | > 100 µM (inactive) | > 100 µM (inactive) | > 100 µM (inactive) | > 100 µM (inactive) | > 100 µM (inactive) | > 100 µM (inactive) | > 100 µM (inactive)
5 | O=C(CCC/C(CC(=O)c1ccc(Br)cc1)=N\O)Nc1ccccc1 | > 100 µM (inactive) | > 100 µM (inactive) | > 100 µM (inactive) | > 100 µM (inactive) | 57.3 µM (inactive) | > 100 µM (inactive) | > 100 µM (inactive) | > 100 µM (inactive) |  | > 100 µM (inactive) | > 100 µM (inactive) | > 100 µM (inactive) | 45.9 µM (inactive) | > 100 µM (inactive) | > 100 µM (inactive) | > 100 µM (inactive) | > 100 µM (inactive) | 28.2 µM (inactive)
6 | O=[N+]([O-])c1cccc(-c2oc(/C=N/c3ccccc3)c([N+](=O)[O-])c2-c2cccc([N+](=O)[O-])c2)c1 | > 100 µM (inactive) |  | > 100 µM (inactive) | > 100 µM (inactive) | > 100 µM (inactive) | > 100 µM (inactive) | > 100 µM (inactive) | > 100 µM (inactive) |  | > 100 µM (inactive) | > 100 µM (inactive) | > 100 µM (inactive) | > 100 µM (inactive) | > 100 µM (inactive) | > 100 µM (inactive) | > 100 µM (inactive) | > 100 µM (inactive) | > 100 µM (inactive)
7 | OC1OC2COC(c3ccccc3)OC2C(O)C1O (stereo unspecified) | > 100 µM (inactive) | > 100 µM (inactive) | > 100 µM (inactive) | > 100 µM (inactive) | > 100 µM (inactive) |  | > 100 µM (inactive) | > 100 µM (inactive) | > 100 | > 100 µM (inactive) | > 100 µM (inactive) | > 100 µM (inactive) |  | > 100 µM (inactive) |  | > 100 µM (inactive) | > 100 µM (inactive) | > 100 µM (inactive)
8 | CC(C)=CCCC1(C)C=Cc2c(c(C)cc3c2[nH]c2cc(O)ccc23)O1 (stereo unspecified) | > 25 µM (inactive) | > 25 µM (inactive) |  | > 25 µM (inactive) | > 25 µM (inactive) | > 25 µM (inactive) | > 25 µM (inactive) | > 25 µM (inactive) | > 25 | > 25 µM (inactive) | > 25 µM (inactive) | > 25 µM (inactive) | > 25 µM (inactive) | > 25 µM (inactive) |  | > 25 µM (inactive) | > 25 µM (inactive) | > 25 µM (inactive)
9 | N#CC(NNC(=O)c1ccccc1O)c1ccccc1O (stereo unspecified) | 3.58 µM (inactive) |  | 9.23 µM (inactive) | 2.91 µM (inactive) | 2.6 µM (inactive) | 10.9 µM (inactive) |  | 10 µM (inactive) | 3.85 | 33.5 µM (inactive) | 8.69 µM (inactive) | 3.55 µM (inactive) | 12.8 µM (inactive) | 4.18 µM (inactive) | 18.5 µM (inactive) | 31.3 µM (inactive) | 3.78 µM (inactive) | 27.1 µM (inactive)
10 | CC1=C(C(=O)NCc2ccccc2)C(c2ccccc2[N+](=O)[O-])C(C(=O)NCc2ccccc2)=C(C)N1 | 13.1 µM (inactive) | 14.2 µM (inactive) | 12.4 µM (inactive) | 13.9 µM (inactive) | 18.4 µM (inactive) | 13.1 µM (inactive) | 17.3 µM (inactive) | 13.7 µM (inactive) | 7.8 | 18.7 µM (inactive) | 25.9 µM (inactive) | 12.8 µM (inactive) | 10.6 µM (inactive) | 10.9 µM (inactive) | 13.6 µM (inactive) |  | 7.24 µM (inactive) | 22.1 µM (inactive)
11 | Cc1cn(C2CC(O)C(COC(=O)c3ccccc3)O2)c(=O)[nH]c1=O (stereo unspecified) | > 100 µM (inactive) | > 100 µM (inactive) | > 100 µM (inactive) |  | > 100 µM (inactive) | > 100 µM (inactive) | > 100 µM (inactive) | > 100 µM (inactive) | > 100 | > 100 µM (inactive) | > 100 µM (inactive) | > 100 µM (inactive) | > 100 µM (inactive) | > 100 µM (inactive) |  |  | > 100 µM (inactive) | > 100 µM (inactive)
12 | Cn1c(=O)c2nc3sc4ccccc4c(=N)n3c2n(C)c1=O | > 100 µM (inactive) | > 100 µM (inactive) | > 100 µM (inactive) | > 100 µM (inactive) | > 100 µM (inactive) | > 100 µM (inactive) | > 100 µM (inactive) | > 100 µM (inactive) |  | > 100 µM (inactive) | > 100 µM (inactive) | > 100 µM (inactive) | > 100 µM (inactive) | > 10 µM (inactive) |  | > 100 µM (inactive) | > 100 µM (inactive) | > 100 µM (inactive)
13 | COc1ccc2c3ccc4c(c3n(C)c2c1)C(=O)C=CC4=O | 16.9 µM (inactive) | > 100 µM (inactive) | > 100 µM (inactive) | 20.5 µM (inactive) | > 100 µM (inactive) | 84.9 µM (inactive) | 84.5 µM (inactive) | 30.5 µM (inactive) | 42.6 | 18.8 µM (inactive) | > 100 µM (inactive) | 17.9 µM (inactive) | 18.4 µM (inactive) | > 100 µM (inactive) | > 100 µM (inactive) |  |  | 
14 | Cc1ccc([S+]([O-])c2ccccc2[N+](=O)[O-])cc1 (stereo unspecified) | > 100 µM (inactive) | 58.3 µM (inactive) | > 100 µM (inactive) | 51.2 µM (inactive) | 65.9 µM (inactive) | 42.2 µM (inactive) | 78.9 µM (inactive) | > 100 µM (inactive) | 65 |  | 70.1 µM (inactive) | > 100 µM (inactive) | > 100 µM (inactive) | 48.8 µM (inactive) |  | > 100 µM (inactive) | 38.5 µM (inactive) | 72.1 µM (inactive)
15 | Ic1ncnc2c1ncn2C1CCCO1 (stereo unspecified) | > 100 µM (inactive) | > 100 µM (inactive) | > 100 µM (inactive) | > 100 µM (inactive) | > 100 µM (inactive) | > 100 µM (inactive) | > 100 µM (inactive) | > 100 µM (inactive) | > 100 | > 100 µM (inactive) | > 100 µM (inactive) | > 100 µM (inactive) |  | > 100 µM (inactive) | 35.8 µM (inactive) | > 100 µM (inactive) | > 100 µM (inactive) | > 100 µM (inactive)
16 | CC(=O)n1cc(CC(C)O)c(=O)[nH]c1=O (stereo unspecified) | > 100 µM (inactive) | > 100 µM (inactive) | > 100 µM (inactive) | > 100 µM (inactive) | > 100 µM (inactive) | > 100 µM (inactive) |  |  | > 100 | > 100 µM (inactive) | > 100 µM (inactive) | > 100 µM (inactive) |  | > 100 µM (inactive) | > 100 µM (inactive) | > 100 µM (inactive) | > 100 µM (inactive) | > 100 µM (inactive)
17 | CC(C)(C)C(=O)/C=C/c1ccc(Oc2ccccc2)cc1 | 30.7 µM (inactive) | 26.2 µM (inactive) | 24.8 µM (inactive) | 15.8 µM (inactive) | 30.8 µM (inactive) | 32 µM (inactive) | 34.3 µM (inactive) | 19.2 µM (inactive) | > 10 |  | 28.5 µM (inactive) | 19.4 µM (inactive) | 27.4 µM (inactive) | 14.8 µM (inactive) | 23.4 µM (inactive) | 16.7 µM (inactive) |  | 19.3 µM (inactive)
